Test results taken from patent US4837342A, “Prostacyclin analogue, and blood circulation improving agent and anti-ulcer composition containing it as active ingredient” (Sagami Chemical Research Center, priority 1986, dated 1989).
Like-named read-outs stand apart in the source and are kept apart here.

Columns and labels:
[1] = background; cited from earlier work
[2] = test system: Hydrochloric acid ulcer; assay: Hydrochloric acid ulcer inhibiting activity; format: in vivo, wister rats; conditions: rat; oral administration of 30 μg/kg; 0.6N hydrochloric acid; read-out: Hydrochloric acid ulcer inhibiting activity, Inhibiting rate
Procedure: Hydrochloric acid ulcer inhibiting activity
Male wister […] having a weight of from 190 to 240 g were used. The rats were starved in the same manner as in Test Example 6, and the test compounds and PGE2 were, respectively, orally administered in an amount of 30 μg/kg, and 30 minutes later, 1 ml of 0.6N hydrochloric acid was orally administered. Thirty minutes after the hydrochloric acid administration, each rat was killed by cervical vertebral luxation. Then, the stomach was taken out and fixed, and the ulcer index was obtained, in the same manner as in Test Example 6. The hydrochloric acid ulcer inhibiting activity of a test compound was represented by the inhibiting percentage (i.e. the percentage of the ulcer index of the treated group to the ulcer index of the non-treated group). To the non-treated group, the solvent was administered.

[3] = test system: Blood platelet (ADP agglutination); assay: Blood platelet agglutination inhibiting activity (ADP-induced), washed rabbit platelet suspension; format: cell-based, rabbit (Japanese white male rabbits); conditions: for IC50: Oryctolagus cuniculus, Platelet, ADP 10 μM, concentration suppressing agglutination to 50%, read-out: Platelet agglutination inhibiting activity ED50, ADP agglutination; for Activity ratio, platelet agglutination inhibiting activity, ADP agglutination: relative to prostacyclin = 1
Procedure: (§1) Blood platelet aggutination inhibiting activity
(§2) Japanese white male rabbits having a weight of from 2.0 to 2.5 kg were used.
(§3) Under anesthesia with sodium Pentobarbital, blood was sampled from the carotid artery, and mixed with a 1/7 volume of an anticoagulant citric acid dextrose solution. Then, the mixture was subjected to centrifugal separation at 140×g for 15 minutes, whereupon the supernatant (platelet rich plasma:PRP) was obtained. PRP was subjected to centrifugal separation at 1,300×g for 7 minutes. The blood platelet pellets thus obtained were washed with a HEPES buffer solution (pH 6.5) for washing blood platelets, and subjected to centrifugal separation at 1,300×g for 7 minutes. The blood platelet pellets washed twice under such condition, were suspended in a suspending liquid (a buffer solution for washing blood platelets, which contains 0.1% of human fibrinogen, 1.8 mM of CaCl2 and 1.2 mM of MgCl2) to obtain a blood platelet suspension having a concentration of from 5×10^8 to 8×10^8 platelets/ml.
(§4) The platelet agglutination ability was measured by means of an agglutination meter. To 380 μl of the platelet suspension, 10 μl of a test compound or a solvent as the control, was added. Three minutes later, 10 μl of a platelet agglutinating substance (10 μM of ADP or 1 μg/ml of collagen, as the final concentration) was added thereto to induce agglutination.
(§5) The blood platelet agglutination inhibiting activity of each test compound was represented by ED50 (i.e. the concentration of the test compound where the platelet agglutination is suppressed to 50%).

[4] = test system: coronary artery; assay: Blood flow-increasing activity in the coronary artery, anesthetized dog; format: in vivo, crossbred adult dog; conditions: for Blood flow increase in coronary artery / ED50: dog, near arterial injection; for Blood flow increase in coronary artery: at 3 μg/kg; for Activity ratio, blood flow-increasing activity in coronary artery: relative to prostacyclin = 1; for ED50: Canis lupus familiaris, reactive hyperemia = 100%
Procedure: Blood flow-increasing activity in the coronary artery
A crossbred adult dog having a weight of from 9 to 15 kg was anesthetized with sodium Pentobarbital and subjected to thoractomy under artificial respiration. After pericardiectomy, the frontal descending branch of the left coronary artery was separated from the surrounding tissues, and a blood flow-measuring probe was attached thereto under sodium heparin treatment. The coronary blood flow was measured by using an electromagnetic flow meter. The test compound was injected into the coronary artery by near arterial injection, and the blood flow-increasing activity in the coronay artery was represented by ED50 (i.e. the dose of a test compound at which the blood flow increases by 50%, as evaluated on the basis that the blood flow increase by the reactive hyperemia caused by releasing the blood flow of the coronary artery after blocking it for 15 seconds, is evaluated to be 100%).

[5] = test system: vertebral artery; assay: Blood flow-increasing activity in the vertebral artery, anesthetized dog; format: in vivo, crossbred adult dog; conditions: for ED50: Canis lupus familiaris, papaverine hydrochloride 100 μg/kg = 100%; for Activity ratio, blood flow-increasing activity in vertebral artery: relative to prostacyclin = 1
Source text: Blood flow-increasing activity in the vertebral artery
A made or female crossbred adult dog having a weight of from 8 to 13 kg was anesthetized by intravenous administration of sodium Pentobarbital and subjected to thoractomy along the mediam line under artificial respiration to expose the left vertebral artery. Under sodium peparin treatment, a polyethylene cannula was inserted into the vertebral artery, and a blood flow-measuring probe was attached to its other end, to which a blood circulation tube led from the left femoral artery was connected, whereby the blood flow in the vertebral artery was measured by using an electromagnetic flow meter. The test compound was injected into the vertebral artery by near arterial injection, and the blood flow-increasingactivity in the vertebral artery was represented by ED50 (i.e. the dose of a test compound at which the blood flow increases by 50%, as evaluated on the basis that the blood flow increase (representing substantially the maximum reaction) by the administration of 100 μg/kg papaverine hydrochloride into the vertebral artery, is evaluated to be 100%).

[6] = test system: Ethanol ulcer; assay: Ethanol ulcer inhibiting activity; format: in vivo, Male wister rats; conditions: rat; for Ethanol ulcer inhibition: oral administration of 30 μg/kg; for ED50: po, P.O., 30 minutes before 99.5% ethanol
Procedure: Ethanol ulcer inhibiting activity
Male wister rats having a weight of from 170 to 270 g were put into individual cages and starved for 24 hours. During this starvation period, the rats were allowed to drink water freely. A test compound or PGE2 as a comparative compound was orally administered in an amount of 3, 10 or 30 μg/kg, and 30 minutes later, 1 ml of 99.5% ethanol was orally administered to each rat. One hour after the ethanol administration, each rat was filled by cervical vertebral luxation, and the stomach was taken out. A 1% formaline solution was injected into the stomach in an amount of about 8 ml, and the stomach was fixed in the formaline solution for 30 minutes. After the fixing, the stomach was severed along the greater curvature, and the mucous membrane surface of the stomach was gently washed with flowing water. Then, the total length of damages appearing on the gastric glandular portion was obtained and used as the ulcer index.
The ethanol ulcer inhibiting activity of a test compound was represented by ED50 (i.e. the dose of the test compound at which the ulcer was inhibited by 50% relative to the ulcer index of the non-treated group). To the non-treated group, the solvent was administered.

[7] = test system: femoral artery; assay: Blood flow-increasing activity in the femoral artery, anesthetized dog; format: in vivo, crossbred adult dog; conditions: for ED50: Canis lupus familiaris, papaverine hydrochloride 100 μg/kg = 100%; for Activity ratio, blood flow-increasing activity in femoral artery: relative to prostacyclin = 1
Procedure: Blood flow-increasing activity in the femoral artery
A male or female crossbred adult dog having a weight of from 8 to 13 kg, was anesthetized by intravenous administration of sodium Pentobarbital. Then, a tracheal cannula was inserted, and artificial respiration was conducted. The blood flow in the femoral artery was measured by inserting the annula into the left femoral artery under sodium heparin treatment and providing a blood flow measuring probe at it other end, and by using an electromagnetic flow meter. The test compound was injected into the femoral artery by near arterial injection, and the blood flow-increasing activity in the femoral artery was represented by ED50 (i.e. the dose of a test compound at which the blood flow increases by 50%, as evaluated on the bais that the blood flow increase (representing substantially the maximum reaction) by the administration of 100 μg/kg of papaveline hydrochloride into the femoral artery, is evaluted to be 100%).

[8] = test system: diastolic blood pressure; assay: Hypotensive activity, anesthetized dog; format: in vivo, crossbred adult dog; conditions: for Activity ratio, hypotensive activity: relative to prostacyclin = 1; for ED (50 mmHg): Canis lupus familiaris, iv
Procedure: A male or female crossbred adult dog having a weight of from 9 to 14 kg was anesthetized by intraveous administration of sodium Pentobarbital. Then, the left carotid was exposed under artificial respiration, and the blood pressure was measured by using an electric blood pressure meter. […]

[9] = test system: Blood platelet (Collagen agglutination); assay: Blood platelet agglutination inhibiting activity (collagen-induced), washed rabbit platelet suspension; format: cell-based, rabbit (Japanese white male rabbits); conditions: for IC50: Oryctolagus cuniculus, Platelet, collagen 1 μg/ml, concentration suppressing agglutination to 50%, read-out: Platelet agglutination inhibiting activity ED50, Collagen agglutination; for Activity ratio, platelet agglutination inhibiting activity, Collagen agglutination: relative to prostacyclin = 1
Procedure: as §1, §2, §3, §4, §5

[10] = test system: Indomethacine ulcer; assay: Indomethacine ulcer inhibiting activity; format: in vivo, Male wister rats; conditions: rat
Source text: Indomethacine ulcer inhibiting activity
Male wister rats having a weight of from 210 to 270 g were used. The rats were starved in the same manner as in Test Example 6. […] Three hours after the indomethacine administration, the test compound or PGE2 was again orally administered in the same amount. Six hours after the first administration of indomethacine, each rat was killed by cervical bertebral luxation. The stomach was taken out and fixed, and the ulcer index was obtained, in the same manner as in Test Example 6.
The indomethacine ulcer inhibiting activity of a test compound was represented by the inhibiting percentage (i.e. the inhibiting percentage of the ulcer index of the treated group to the ulcer index of the non-treated group). To the non-treated group, the solvent was administered.

[11] = oral administration of 60 μg/kg twice
[12] = dog, at 3 μg/kg, near arterial injection

IC50 [3] [nM]	IC50 [9] [nM]	SMILES	inhibition in vivo at 0.03 mg/kg [2] [%]	Activity ratio, platelet agglutination inhibiting activity, ADP agglutination [3]	Activity ratio, blood flow-increasing activity in coronary artery [4]	ED50 ([5]; dog, near arterial injection) [µg/kg]	Activity ratio, blood flow-increasing activity in vertebral artery [5]	Ethanol ulcer inhibition [6] [%]	ED50 ([7]; dog, near arterial injection) [µg/kg]	Activity ratio, blood flow-increasing activity in femoral artery [7]	Hypotensive activity, blood pressure decrease ([8]; dog, at 10 μg/kg i.v.) [mmHg]	Activity ratio, hypotensive activity [8]	Activity ratio, platelet agglutination inhibiting activity, Collagen agglutination [9]	Indomethacine ulcer inhibition (in words) [10, 11]	ED50 [4] [µg/kg]	ED50 [6] [µg/kg]	other results
		CCCCC[C@H](O)/C=C/[C@@H]1[C@H]2C=C(CCCCC(=O)O)C[C@H]2C[C@H]1O [9-(O)-methano-Δ^6 -PGI1]															Chemical stability (in words) [1]: chemically stable
1300	970	CCCCC[C@H](O)/C=C/[C@@H]1[C@H]2CCC(CCCC(=O)O)=C[C@H]2C[C@H]1O [(a), 3-(3-carboxypropyl)-7-exo-(3α-hydroxy-trans-1-octenyl)-8-endo-hydroxy-cis-bicyclo[4,3,0]nona-2-ene]	15.3	1/455	About 1/500	0.44	1/10	20.0	0.19	1/8	20	1/192	1/285	Certain inhibition			Blood flow increase in coronary artery [4]: 37.6%
290	280	CCCCC[C@H](O)/C=C/[C@@H]1[C@H]2CCC(CCCCC(=O)O)=C[C@H]2C[C@H]1O [(e), 3-(4-carboxybutyl)-7-exo-(3α-hydroxy-trans-1-octenyl)-8-enodo-hydroxy-cis-bicyclo[4,3,0]nona-2-ene]	18.3	1/100	1/380	2.5	1/57	28.5	0.46	1/19	17.9	1/213	1/82	Certain inhibition	3.8		
38		CCC#CCC(C)[C@H](O)/C=C/[C@@H]1[C@H]2CCC(CCOCC(=O)O)=C[C@H]2C[C@H]1O (stereo partly drawn) [(g), 3(3-oxa-4-carboxybutyl)-7-exo-(3α-hydroxy-4,8-dimethyl-1-trans-octen-6-ynyl)-8-endo-hydroxy-cis-bicyclo[4,3,0]nona-2-ene]	42.1	1/13	1/55	2	1/45		0.72	1/30		1/67			0.55	5.38	ED (50 mmHg) ([8]; Table 2, read-out: Hypotensive activity ED50 mmHg): 16.1 µg/kg; ED (50 mmHg) ([8]; dog, femoral vein, Table 1, read-out: Hypotensive activity ED50 (dose reducing diastolic blood pressure by 50 mmHg)): 16 µg/kg; Indomethacine ulcer inhibiting activity, Inhibiting rate [10, 11]: 57.3%
> 3000		CCC#CCC(C)[C@H](O)/C=C/[C@@H]1[C@H]2CCC(COCCC(=O)O)=C[C@H]2C[C@H]1O (stereo partly drawn) [(h)]	21.3					32.5			15			Certain inhibition			Blood flow increase in coronary artery [4]: 25%; Blood flow increase in vertebral artery [5, 12]: 28.5%; Blood flow increase in femoral artery [7, 12]: 31.7%
22	24	CCC#CCC(C)[C@H](O)/C=C/[C@@H]1[C@H]2CC=C(CCCCC(=O)O)C[C@H]2C[C@H]1O (stereo partly drawn) [(i)]	17.4		1/360	0.8	1/18		0.56	1/23	24.5	1/152	1/7		3.6	5.89	Hypotensive activity, blood pressure decrease ([8]; at 60 μg/kg i.v. (so in the source), Table 2): 24.5 mmHg; Indomethacine ulcer inhibiting activity, Inhibiting rate ([10]; oral administration of 10 μg/kg twice (so in the source)): 49.5%
		O=C(O)CCC/C=C1\C[C@H]2C[C@@H](O)[C@H](/C=C/[C@@H](O)C3CCCC3)[C@H]2C1 [OP-41483]															Chemical stability (in words) [1]: chemically stable
		CCCCC[C@H](O)/C=C/[C@H]1[C@H](O)CC(=O)[C@@H]1C/C=C\CCCC(=O)O [PGE2, reference compound]	61.6													9.03	Indomethacine ulcer inhibiting activity, Inhibiting rate ([10]; oral administration 30 μg/kg twice): 98.3%
